For experiment [1], the system named is electrically paced left atrium. The experiment can be described thus: Isolated rat atria: tension of the electrically paced left atrium. The settings on record: Rattus norvegicus; for Emax: maximal effect relative to isoprenaline maximum (isoprenaline = 1), read-out: Tension Intrinsic Activity; for EC50: molar concentration producing 50% of the compound's own maximum response. Here is the method:
(§1) Sprague-Dawley male rats (300-400g) are killed and the right and left atria dissected out independently and mounted on a combined tissue holder/electrode. […] The rate of the spontaneously beating right atrium (via an isometric transducer and a ratemeter) and the tension of the electrically paced left atrium (via an isometric transducer) are recorded on a M19 chart recorder.
(§2) After an initial stabilization period, the tissues are exposed to a maximal concentration of isoprenaline (10-^7M). The tissues are then washed several times until rate and tension return to baseline level. A dose-response curve to the test compound is then carried out.
(§3) Responses to each concentration of test compound are expressed as a percentage of the maximal responses to isoprenaline. Results are given in the form of (a) intrinsic activity (maximal effect of test compound with respect to isoprenaline maximum, i.e. isoprenaline intrinsic activity = 1) and (b) EC50 (the molar concentration at which the test compound produces 50% of its own maximum response).

For experiment [2], the system named is spontaneously beating right atrium. The experiment can be described thus: Isolated rat atria: rate of the spontaneously beating right atrium. To be noted: for Emax: maximal effect relative to isoprenaline maximum (isoprenaline = 1), read-out: Rate Intrinsic Activity; for EC50: molar concentration producing 50% of the compound's own maximum response. The procedure: as §1, §2, §3

In a further experiment the test system is conscious cats. The experiment can be described thus: Inotropic activity in conscious cats. The format is in vivo. The settings on record: for Peak dp/dt: maximal percentage change in dp/dt of left ventricular pressure over initial baseline level; for Peak HR: maximal percentage change in heart rate over initial baseline level; for dp/dt: HR: ratio of peak dp/dt change to peak HR change. Here is the method: Male 3-4.5 kg cats, bred in-house are implanted with a polythene cannula in the left ventricle which is exte- riorised at the back of the neck by means of a small teflon valve. Recordings are made via a pressure transducer attached by means of a length of polyethylene tubing to the cat neck valve.
During an initial 1 hour stabilisation period, steady baseline recordings are obtained. The test compound contained in a gelatine capsule, is then administered orally. Recording is normally carried out for 6 hours post dosing.
The maximal percentage change in dp/dt over initial baseline level is used as the index of inotropic activity. Chronotropic activity is taken as the maximal percentage change in HR over the initial baseline level.

A further experiment concerns Male Sprague-Dawley rats. Briefly: Effect on energy expenditure of rats. The format is in vivo. The settings on record: percentage of rate of rats dosed with water; for response vs control in vivo at 7.8 mg/kg / response vs control in vivo at 4 mg/kg / response vs control in vivo at 7.5 mg/kg / response vs control in vivo at 4.1 mg/kg: Rattus norvegicus, po; for response vs control in vivo at 7.8 mg/kg: 7.8 mg/kg p.o.; for response vs control in vivo at 4 mg/kg: 4.0 mg/kg p.o.; for response vs control in vivo at 7.5 mg/kg: 7.5 mg/kg p.o.; for response vs control in vivo at 4.1 mg/kg: 4.1 mg/kg p.o. The procedure:
Water was provided ad lib at all times. The compounds were administered orally in water to 3 or 4 rats. A further 4 rats were dosed orally with water. The rats were placed in boxes through which air was drawn and the oxygen content of the air leaving the boxes was measured. The energy expenditure of the rats was calculated for 3 hours and for 21 hours after dosing from the volume of air leaving the boxes and its oxygen content, following the principles described by J.B. de V. Weir, J. Physiol. (London) 109, 1-9 (1949). The results are expressed as a percentage of the rate of energy expenditure of the rats dosed with water.

A further experiment has as its system Female CFLP mice. The experiment can be described thus: Hypoglycaemic activity (subcutaneous glucose load, blood glucose curve). The format is in vivo. To be noted: glucose 1 g/kg subcutaneously, 2 hour period, compared with control mice given water. Here is the method: Female CFLP mice, weighing approximately 25 g, were fasted for 24 hours prior to the study. The compounds under study were administered orally as an aqueous solution to each of 6 mice. 30 minutes later a blood sample (20 ul) was obtained from the tail for the analysis of blood glucose. Immediately after taking this blood sample, glucose (1 g/kg body weight) was administered subcutaneously to each mouse. 6 mice were given water as a control. Blood samples were then obtained from each mouse at 30 minute intervals for 120 minutes.
Compounds that produced a significant (p<0.05) reduction of blood glucose, compared with control mice qiven water, at any time interval were considered active. The area under the blood glucose curve over the 2 hour period after the administration of the glucose was calculated for each compound and compared with the value for control animals.

Where [3] appears, read: Rattus norvegicus, Krebs solution at 32°C.
The mark [4] stands for this setting: 3 h, 0-3h after dosing, read-out: Mean Energy Expenditure 0-3h.
Where [5] appears, read: 21 h, 0-21h after dosing, read-out: Mean Energy Expenditure 0-21h.
The mark [6] stands for this setting: Rattus norvegicus, organ bath at 29°C.

Structures are written as SMILES. Like-named read-outs stand apart in the source and are kept apart here.

Regarding `CC(COc1ccc2c(c1)OCC(=O)N2)NCC(O)c1ccc(O)cc1` (stereo not shown) [Example 1, 7-[2-[2-(4-hydroxyphenyl)-2-hydroxyethylamino]-2-methylethoxy]-2H-1,4-benzoxazin-3-(4H)-one], in experiment [1] (Krebs solution at 32°C), the Emax was 97% and it took 21 nM to reach a half-maximal effect (EC50). In experiment [2] (setting [3]), the Emax is 97% and the half-maximal effective concentration (EC50) (commonly the midpoint of the concentration-response curve) came out at 6.2 nM. In addition, in the experiment on conscious cats (1 mg/kg p.o.), the Peak dp/dt is reported as 230%, the “Peak HR” value was 46% and the “dp/dt: HR” value was 5.0.
Consider `CC(COc1ccc2c(c1)NC(=O)CO2)NCC(O)COc1ccc(O)cc1` (stereo not shown) [Example 4, 6-[2-[3-(4-Hydroxyphenoxy)-2-hydroxypropylamino]-2-methylethoxy]-2H-1,4-benzoxazin-3-(4H)-one], for which, in experiment [1] (Krebs solution at 32°C), the Emax was 40% and a half-maximal effect (EC50) was put at 50 nM. Also, in the experiment on Male Sprague-Dawley rats (setting [4]), the response vs control in vivo at 7.8 mg/kg was 128%. In the experiment on Male Sprague-Dawley rats (setting [5]), the response vs control in vivo at 7.8 mg/kg was found to be 119%. In experiment [2] (setting [3]), the Emax came out at 89% and a half-maximal effect (EC50) was put at 14 nM. Also, in the experiment with conscious cats (1 mg/kg p.o.), the Peak dp/dt is 50%, the “Peak HR” value was found to be 36% and the “dp/dt: HR” value turned out to be 1.4.
As for `CC(COc1ccc2c(c1)OCC(=O)N2)NCC(O)COc1ccc(O)cc1` (stereo not shown) [Example 3, 7-[2-[3-(4-Hydroxyphenoxy)-2-hydroxypropylamino]-2-methylethoxy]-2H-1,4-benzoxazin-3-(4H)-one], in the experiment with Female CFLP mice (2.5 μmol/kg orally), the “% Reduction in area under blood glucose curve” value (shortened to “% Reduction in area”) came out at 3%. In addition, in experiment [1] (Krebs solution at 32°C), the Emax came to 52% and the midpoint of the response, the EC50, lay at 21 nM. Also, the response vs control in vivo at 4 mg/kg in the experiment on Male Sprague-Dawley rats (setting [4]) worked out at 108%. Besides, in the experiment with Male Sprague-Dawley rats (setting [5]), the response vs control in vivo at 4 mg/kg was determined as 105%. For the same molecule, in experiment [2] (setting [3]), the Emax was 72% and the EC50 worked out at 5.5 nM. Moreover, in the experiment with conscious cats (0.2 mg/kg p.o.), the Peak dp/dt amounted to 23% and the “Peak HR” value worked out at 0%. In the experiment with conscious cats (1 mg/kg p.o.), the Peak dp/dt turned out to be 95%, the “Peak HR” value is 13% and the “dp/dt: HR” value is 7.3.
In the case of `CC(COc1ccc2c(c1)OCC(=O)N2)NCC(O)c1cccc(Cl)c1` (stereo not shown) [Example 2, 7-[2-[2-(3-Chlorophenyl)-2-hydroxyethylamino]-2-methyl-ethoxy]-2H-1,4-benzoxazin-3-(4H)-one], in the experiment on Female CFLP mice (2.5 μmol/kg orally), the “% Reduction in area” value was 22%. In addition, the Emax in experiment [1] (Krebs solution at 32°C) is 18%; in experiment [2] (setting [3]), 44%. Also, the 50% effective concentration (EC50) in experiment [1] (Krebs solution at 32°C) came out at 85 nM; in experiment [2] (setting [3]) it was 55 nM. In addition, the response vs control in vivo at 7.5 mg/kg in the experiment with Male Sprague-Dawley rats (setting [4]) worked out at 128%; in the experiment on Male Sprague-Dawley rats (setting [5]), 110%.
As for `CC(COc1ccc2c(c1)NC(=O)CO2)NCC(O)c1cccc(Cl)c1` (stereo not shown) [Example 6, 6-[2-[2-(3-Chlorophenyl)-2-hydroxyethylamino]-2-methylethoxy]-2H-1,4-benzoxazin-3-(4H)-one], the “% Reduction in area” value in the experiment with Female CFLP mice (10 μmol/kg orally) stood at 29%. In addition, the results for the Emax in experiment [1] (Krebs solution at 32°C) and in experiment [2] (setting [3]) were 7% and 66%, respectively. Besides, the EC50 turned out to be 300 nM in experiment [1] (Krebs solution at 32°C) and 25 nM in experiment [2] (setting [3]). Also, the values for the response vs control in vivo at 7.5 mg/kg in the experiment on Male Sprague-Dawley rats (setting [4]) and in the experiment on Male Sprague-Dawley rats (setting [5]) were 125% and 105%, respectively.
Regarding `CCc1cccc2cc(C(O)CNC(C)COc3ccc4c(c3)NC(=O)CO4)oc12` (stereo not shown) [Example 20, 6-[2-[2-(7-Ethylbenzofuran-2-yl)-2-hydroxyethylamino]-2-methylethoxy]-2H-1,4-benzoxazin-3-(4H)-one], the Emax in experiment [1] (organ bath at 29°C) was 113%; in experiment [2] (setting [6]), 95%. In addition, the results for the EC50 in experiment [1] (organ bath at 29°C) and in experiment [2] (setting [6]) were 130 nM and 63 nM, respectively. The results for the response vs control in vivo at 4.1 mg/kg in the experiment on Male Sprague-Dawley rats (setting [4]) and in the experiment on Male Sprague-Dawley rats (setting [5]) were 110% and 107%, respectively.
`CC(COc1ccc2c(c1)NC(=O)CO2)NCC(O)c1ccc(Cl)c(Cl)c1` (stereo not shown) [Example 7, 6-[2-[2-(3,4-Dichlorophenyl)-2-hydroxyethylamino]-2-methylethoxy]-2H-1,4-benzoxazin-3-(4H)-one]: in the experiment on Female CFLP mice (25 μmol/kg orally), the “% Reduction in area” value is recorded as 11%. Besides, the Emax in experiment [1] (Krebs solution at 32°C) turned out to be 14%; in experiment [2] (setting [3]), 50%. The figures for the EC50 in experiment [1] (Krebs solution at 32°C) and in experiment [2] (setting [3]) were 45 nM and 36 nM, respectively. The figures for the response vs control in vivo at 4.1 mg/kg in the experiment with Male Sprague-Dawley rats (setting [4]) and in the experiment with Male Sprague-Dawley rats (setting [5]) were 149% and 107%, respectively.
As to `CC(Cc1ccc2c(c1)NC(=O)CO2)NCC(O)c1cccc(Cl)c1` (stereo not shown) [8 (82:18), 6-[2-[2-(3-chlorophenyl)-2-hydroxyethylamino]-2-methylethyl]-2H-1,4-benzoxazin-3-(4H)-one], the values for the Emax in experiment [1] (Krebs solution at 32°C) and in experiment [2] (setting [3]) were 12% and 29%, respectively. Also, the 50% effective concentration (EC50) was 3200 nM in experiment [1] (Krebs solution at 32°C) and 240 nM in experiment [2] (Krebs solution at 32°C). In addition, the “Mean Energy Expenditure 0-3h” value in the experiment on Male Sprague-Dawley rats (3.6 mg/kg p.o., 0-3h after dosing) stood at 122%. In addition, in the experiment on Male Sprague-Dawley rats (3.6 mg/kg p.o., 0-21h after dosing), the “Mean Energy Expenditure 0-21h” value came to 106%.

The values above are taken from EP0171702A1, “Benzoxazinone derivatives, preparation and use” (BEECHAM GROUP PLC, priority 1984, dated 1986).
